Assay results reported in US6300327A, “Compositions and methods for potentiation of neurotrophin activity” (The University of Southern California, priority 1997, dated 2001).
pKi: −log10 of the molar value. “Also recorded” adds a separate entry of the source. Where two headings read alike, the source gives them in different places.

Assays:
[1] = tested on: midbrain dopaminergic neurons (cultures of ventral mesencephalon); experiment: Dopamine uptake in primary cultures of fetal rat ventral mesencephalon; assay type: cell-based; conditions: for activity at 5 µM: Rattus norvegicus, Neuron; for Dopamine uptake, Mean ± SEM: n=4
Method: Primary cultures of fetal rat brain septal and mesencephalic cells were prepared in a heretofore known manner [Knusel et al., supra]. Briefly, defined areas were dissected from fetal rat brains (Wistar, E15-16, Charles River, Mass.). The septal area contained the cholinergic neurons from septum, diagonal band of Broca and nucleus basalis. The ventral mesencephalon containing the dopaminergic neurons of the substantia nigra and the ventral tegmental area was dissected and dissociated mechanically. The cells were plated in 16 mm multiwell plates precoated with polyethyleneimine (1 mg/ml, 37° C., overnight), containing 0.5 ml modified L-15 medium supplemented with 5% heat inactivated horse serum and 0.5% heat inactivated fetal calf serum. Modified L-15 was prepared [Knusel et al., "Selective and Nonselective Stimulation of Central Cholinergic and dopaminergic Development in vitro by Nerve Growth Factor, Basic Fibroblast Growth Factor, Epidermal Growth Factor, Insulin and the Insulin-like Growth Factors I and II," J. Neurosci. 10:558-570 (1990)] by adding various amino acids, vitamins, antibiotics, glucose and NaHCO3 to Leibovitz's L-15 medium (Gibco, Grand Island, N.Y.). Plating densities were 4×10^5 cells/cm^2 for basal forebrain cultures and 3×10^5 cells/cm^2 for mesencephalic cultures. Of these cells, 0.5 to 1% were cholinergic or dopaminergic, respectively. Growth factors were typically added on the second day of culture and the cells were grown for 5 or more days. For ChAT assays tissue was homogenized in 250 μl of 50 mM Tris-HCl buffer, pH 6.0 with 0.3% Triton X-100. [1-^14 C]acetylcoenzyme A (NEN) concentration was 20 μM and specific activity 4.09 Ci/mol. To measure dopamine uptake, cultures were preincubated for 5 min at 37° C. with 250 μl incubation solution (5 mM glucose, 1 mM ascorbic acid in PBS) containing 1 mM pargyline. [^3 H]dopamine (37 Ci/mmol) was then added to give a final concentration of 50 nM and the cultures were incubated for another 15 minutes. Blanks were obtained by incubating cells at 0° C.
In Table 1, dopamine uptake is given as fmol/min/culture dish. Cultures were grown in 24-well plates for 7 days in L-15 medium with 5% horse and 0.5% fetal bovine serum and treated with growth factors and K-252b from the second day of culture. rhBDNF, 200 ng/ml; des-IGF-1, 1 μg/ml; n=4; *different from respective control group, p <0.01 (Student's t-test). The apparent difference between control cultures grown in presence and absence of K-252b was statistically not significant. The experiment shown is a representative case of a total of 5 independent experiments.

[2] = tested on: trk; experiment: trk tyrosine phosphorylation in PC12 cells (immunoprecipitation, anti-phosphotyrosine immunoblot); assay type: cell-based
Method: To measure the status of trk tyrosine phosphorylation, PC12 cells were lysed and immunoprecipitated with anti-trk serum. The trk proteins were subjected to 7.5% SDS-PAGE and analyzed by immunoblotting with anti-phosphotyrosine antibodies as described in detail in the literature [Kaplan, D. R. et al., "PDGF beta receptor stimulates tyrosine phosphorylation of GAP and association of GAP with a signaling complex," Cell 61:125-133 (1990)]. Tyrosine phosphorylation of cellular proteins was assayed by probing Western blots of lysates of PC12 cells incubated with K-252b and NT-3 or NGF with anti-phosphotyrosine antibodies. Phospholipase C gammal was identified in these blots as described elsewhere [Vetter, M.L. et al., "Nerve growth factor rapidly stimulates tyrosine phosphorylation of phospholipase C-gammal by a kinase activity associated with the product of trk protooncogene," Proc. Natl Acad. Sci. USA 88:5650-5654 (1991)].
Experiments on PC12 cells confirmed observations made on primary neuron cultures. Treatment with K-252b stimulated NT-3 induced neurite outgrowth and trk tyrosine phosphorylation in PC12 cells while inhibiting NGF induced effects. PC12 cells were incubated for 48 hours with K-252b (50 nM) and NT-3 or NGF (50 ng/ml). FIG. 4A illustrates the % cells with neurites after 48 hours incubation. Neurites were scored if they were a length of one cell body or more. PC12 cells were subsequently lysed and immunoprecipitated with anti-trk serum. trk proteins were subjected to SDS-PAGE and analyzed by immunoblotting with anti-phosphotyrosine antibodies (FIG. 4B). Lane 1, NT-3 +K-252b; lane 2, NT-3; lane 3, NGF +K-252b; lane 4, NGF. For FIG. 4C, PC12 cells were incubated for 1 hour in K-252b (50 nM or 10 μM) and with NT-3 or NGF for 5 minutes prior to lysis; other methods were the same as described for FIG. 4B. Lane 1, NT-3+10 μM K-252b; lane 2, NT-3±50 nM K-252b; lane 3, NT-3; lane 4, NGF+10 μM K-252b; lane 5, NGF+50 nM K-252b; lane 6, NGF; lane 7, untreated control.

[3] = tested on: trk; experiment: Cell-free tyrosine phosphorylation of recombinant human trk expressed in Sf9 insect cells; assay type: biochemical; conditions: 10 μM K-252b
Method: (§1) Human trk and trkB were expressed in Sf9 insect cells transfected using a baculovirus system. The trk proteins were immunoprecipitated as described above and the precipitates were incubated with 20 μCi [gamma-^32 P]ATP, 10 mM MnCl2, 20 mM Tris, pH 7.4, for 5 min at 25° C. in the presence of increasing amounts of K-252b or control solution. Phosphorylated proteins were analyzed as described for FIG. 4B. The tyrosine kinase activity of the trk and trkB proteins was activated in the absence of ligand, a common observation for receptor tyrosine kinase produced in the baculovirus system. The trk and trkB proteins were 25% pure as assayed by SDS-PAGE.
(§2) K-252b interacts directly with the trk and trkB protein. Human trk and trkB were expressed in Sf9 insect cells transfected using a baculovirus system. trk proteins were immunoprecipitated and the precipitates were incubated with [gamma^32 P]ATP in the presence of increasing amounts of K-252b or control solution.

[4] = tested on: trkB; experiment: Cell-free tyrosine phosphorylation of recombinant human trkB expressed in Sf9 insect cells; assay type: biochemical; conditions: 10 μM K-252b
Method: as §1, §2

[5] = Cytotoxicity in vitro; assay type: cell-based
[6] = tested on: neurotrophin activity; experiment: Neurotrophin potentiation in vitro (overall statements); assay type: cell-based
[7] = target: protein kinase C; conditions: in vitro assay systems; cited from earlier work
[8] = target: cGMP-dependent protein kinase; conditions: in vitro assay systems; cited from earlier work

Structure (SMILES): CC12OC(CC1(O)C(=O)O)n1c3ccccc3c3c4c(c5c6ccccc6n2c5c31)CNC4=O (centres unmarked) [K-252b]
- effect on increase in dopamine uptake mediated by BDNF ([1]; K-252b 5 μM (Table 1)): prevented the increase in dopamine uptake; also recorded: inhibits the stimulatory action
- activity at 5 µM ([1]; read-out: Dopamine uptake, % of Control, With K-252b (5 μM) + des-IGF-1 1 μg/ml): 201%
- activity at 5 µM ([1]; read-out: Dopamine uptake, % of Control, With K-252b (5 μM) + rhBDNF 200 ng/ml): 119%
- Dopamine uptake, Mean ± SEM ([1]; With K-252b (5 μM) + des-IGF-1 1 μg/ml): 22.9 ± 1.0 fmol/min/culture dish
- Dopamine uptake, Mean ± SEM ([1]; With K-252b (5 μM) + rhBDNF 200 ng/ml): 13.6 ± 0.7 fmol/min/culture dish
- Dopamine uptake, Mean ± SEM ([1]; With K-252b (5 μM), no growth factor (Control)): 11.4 ± 0.2 fmol/min/culture dish
- effect on stimulatory action of bFGF and insulin on dopamine uptake ([1]; bFGF and insulin): does not inhibit
- effect on stimulatory action of des-IGF-1 on dopamine uptake ([1]; des-IGF-1 1 μg/ml): not to inhibit
- effect on action of BDNF on dopaminergic neurons ([1]; low concentrations of K-252b): did not potentiate
- trk tyrosine phosphorylation with NT-3 ([2]; 50 nM K-252b + NT-3, 48 hours): clear increase
- effect on NGF-induced trk phosphorylation ([2]; 10 μM K-252b, 1 hour, then NGF 5 minutes): partially inhibited
- trk tyrosine phosphorylation with NT-3 ([2]; 1 hour K-252b followed by 5 minutes NT-3): greatly enhanced
- trk tyrosine phosphorylation, inhibitor alone without NT-3 ([2]; K-252b alone): identical to untreated controls
- effect on trk tyrosine phosphorylation, cell-free system [3]: completely prevented
- effect on trkB tyrosine phosphorylation, cell-free system [4]: completely prevented
- cytotoxicity [5]: lacked cytotoxicity; also recorded: non-toxic
- effect on actions of NT-3 ([6]; nM concentrations): selectively potentiates
- effect on actions of all neurotrophins ([6]; μM concentrations): inhibits the actions of all neurotrophins
- pKi [7]: 7.00 to 8.00
- pKi [8]: 7.00 to 8.00
